From US6812034B2, “Fetuin-MGP-mineral complex in serum assayed to determine calcification risk” (The Regents of the University of California, priority 2000, dated 2004)

How the values were obtained:
[1] = serum levels of calcium, phosphate, MGP and BGP after subcutaneous bisphosphonate; format: in vivo, rat; conditions: for Ionic calcium / total calcium: 8 mg/100 g
Description: Rats were fed rodent diet 5001 (Purina Mills Inc., St. […] Etidronate was dissolved with 0.15 M NaCl, titrated to pH 7.4 with dilute NaOH, and administered subcutaneously to forty-day-old male rats. Control animals received injections of 0.15 M NaCl only. […] At the times indicated in FIG. 1, each rat was anesthetized with metofane and a 400 μl sample of blood was withdrawn from the jugular vein. Blood samples were allowed to clot for 15 min at room temperature and serum was obtained after centrifugation in a clinical centrifuge and then frozen rapidly on dry ice and stored at -70° C. until later analysis. The same procedure was followed for the second time course experiment (FIG. 10), with the difference that the etidronate dose was increased to 32 mg per 100 g body weight. […] Two hours later, all rats were injected with etidronate at a dose of 8 mg/100 g (t=0), and 400 μl of blood were removed from each animal at the indicated times for biochemical analyses. […] In neither control group could we detect a significant change in serum levels of calcium, phosphate, or MGP at any time point. […] Rice et al. (1994) J. Bone Min. Res. 9: 567-576). Calcium levels in serum and other samples were determined colorimetrically using cresolphthalein complexone (Sigma) and phosphate levels in serum, effluent fractions, and other samples were determined calorimetrically as described (Chen et al. (1956) Anal. Chem. 28(11): 1756-1758). For determination of ionic calcium, freshly obtained blood samples were immediately placed into a 2.5 ml gold top vacutainer tube to avoid out gassing of CO2 and the associated shift in pH. […] Electrophoresis was carried out using 4 to 20% polyacrylamide gels (Novex, Inc., San Diego, Calif.) run in Tris-glycine buffer containing SDS. Protein sequencing was carried out on bands transferred to PVDF membranes using a Procise 494 Sequencer (ABI division, PE Biosystems, Foster City, Calif.).

[2] = tested on: normal bone mineralization; conditions: parenteral; cited from earlier work
[3] = centrifugation of serum at 16,000 x g; format: in vivo, rat
Description: The effect of centrifugation on the serum mineral complex was investigated in serum samples obtained 6 h after administration of etidronate at doses of 8 mg/100 g and 32 mg/100 g body weight. At the lower dose, no significant amount of calcium, phosphate, or MGP was sedimented after centrifugation for 30 min at 16,000×g. At the higher dose, a well-defined translucent pellet was obtained after centrifugation for 30 min at 16,000×g. This pellet was dissolved in 1 ml of 50 mM HCl and analyzed for calcium, phosphate, and MGP.

[4] = tested on: vitamin D-induced artery calcification; assay: mineral phosphate accumulation in acid demineralization extracts of thoracic aorta and carotid arteries, vitamin D plus warfarin; format: in vivo, rat
Description: Tissues were subsequently washed extensively with buffer and extracted with 1 ml of 10% formic acid for 24 h at room temperature, as described. Calcium levels in serum were determined colorimetrically using cresolphthalein complexone (Sigma) and phosphate levels in serum and in acid tissue extracts were determined calorimetrically as described (Zhu et al. (1994) Cardiology, 85: 370-377). Tissue sectioning and staining were carried out by Biomedical Testing Services, Inc., (San Diego, Calif.). The effect of bisphosphonates on artery calcification was first examined in rats in which artery calcification was induced by treatment with warfarin plus high doses of vitamin D. […] All animals were killed by exsanguination at 96 h. […] All animals were killed by exsanguination at 96 h after the first vitamin D dose. […] All animals were killed by exsanguination 96 h after the first vitamin D injection.

[5] = tested on: growth plate cartilage mineralization; assay: microradiograph of the proximal tibia; format: in vivo, rat; conditions: 4 mg to 100 g rats at t=0 and 24 h, killed at 48 h
Description: These rats were exsanguinated at t=48 h. Serum was obtained at each time point and stored at -20° C. until later analysis. Tibias from the rats killed at 48 h, as well as from age-matched controls, were removed, cleaned of adhering tissue, and fixed in 70% ethanol. Tibia samples were embedded in plastic and cut into sections of 500 microns by Pathology Associates International (Frederickberg, Md.). The resulting sections were microradiographed using a Hewlett-Packard Model […] Faxitron Xray machine. All animal experiments were approved by the UCSD animal subjects committee.

[6] = 32 mg/100 gm sc, 6 h, 1 ml pooled serum prior to centrifugation
[7] = 32 mg/100 gm sc, 6 h, 16,000 x g 30 min

## CC(O)(P(=O)(O)O)P(=O)(O)O [Etidronate, (1-hydroxyethylylidene)-bisphosphonate]
[1]; 4 mg/100 g body weight, 6 h, data not shown
  increase in serum calcium, phosphate and MGP compared with the 8 mg/100 g dose: smaller increase
[1]; 8 mg/100 g body weight sc
  elevation of serum calcium: 1.8 fold
  elevation of serum phosphate: 1.6 fold
  serum MGP: 12 µg/mL
  serum calcium: 4.3 mM
  serum phosphate: 5.6 mM
[1]; 8 mg/100 g sc
  time at which serum mineral complex reaches maximal levels: 6 h
  time by which serum mineral complex is cleared from serum: ≤ 24 h
  time of peak level of MGP: 6 h
  time of peak serum BGP level: 1 h
  time to half of maximal serum MGP levels: 3 h
  time to half of maximal serum calcium and phosphate levels: 1 h
[1]; 8 mg/100 g sc, by 6 h
  phosphate above control levels: 59%
  total calcium above control levels: 76%
[1]; 8 mg/100 g sc, data not shown
  maximum elevation of serum BGP: 3 fold
[1]; 1 h
  Ionic calcium: 1.47 ± 0.04 mM
  total calcium: 3.45 ± 0.34 mM
[1]; 2 h
  Ionic calcium: 1.51 ± 0.04 mM
  total calcium: 4.05 ± 0.44 mM
[1]; 6 h
  Ionic calcium: 1.46 ± 0.03 mM
  total calcium: 4.41 ± 0.43 mM
[1]; 32 mg/100 g sc
  time of maximal level in serum total calcium, phosphate and MGP: 6 to 9 h
[1]; 32 mg/100 g sc, 6 h
  level of serum ionized calcium: no increase
[1]; 32 mg/100 g sc, 24 h
  serum levels of total calcium, phosphate and MGP: remained substantially elevated
[1]; 32 mg/100 g, within 6 h
  increase in serum MGP levels: 36 fold
  increase in serum phosphate levels: 2.5 fold
  serum MGP: 18 µg/mL
  serum phosphate: 8.6 mM
  total serum calcium: 8.8 mM
[2]
  dose required to inhibit normal bone mineralization in vivo: about 5 mg P/kg/day
[3]; 8 mg/100 g, 6 h serum, 30 minutes at 16,000 x g
  sedimentation of calcium, phosphate or MGP: unable to demonstrate the sedimentation
[3]; [6]
  Calcium, Initial Serum: 9.64 µmol
  MGP, Initial Serum: 16,200 ng
  Phosphate, Initial Serum: 7.49 µmol
[3]; [7]
  Calcium, Dissolved Pellet: 3.27 µmol
  Calcium, Supernatant: 6.88 µmol
  MGP, Dissolved Pellet: 14,400 ng
  MGP, Supernatant: 800 ng
  Phosphate, Dissolved Pellet: 1.68 µmol
  Phosphate, Supernatant: 5.84 µmol
[4]; 84 h, FIG. 3
  dose required to reduce the extent of mineralization by half in the thoracic aorta: 2 mg P/kg/day
[4]; 84 h, FIG. 4
  dose required to reduce the extent of mineralization by half in the carotid artery: 2 mg P/kg/day
[4]; daily subcutaneous dose, vitamin D-induced artery calcification, male rats initially 200 g
  Artery Calcification Dose for 50% inhibition: 2 mg P/kg/day
[4]; relative to etidronate = 1
  Artery Calcification Relative potency: 1
[5]
  microradiograph of the proximal tibial metaphysis: alternating bands of calcification and no calcification
